Source: ChEMBL document CHEMBL4804281, “STK4 inhibitors for treatment of hematologic malignancies” (2020)
Values belong to the compound of their own block, whether it stands above or below them. Calls of active or inactive are those of the source. No cut-off for these calls is given here.

Experiments:
[1] = tested on: NCI-H929; assay: Upregulation of p21 protein level in human NCI-H929 cells at 1 uM measured after 24 hrs by Western blot analysis; type: functional, cell-based
[2] = biological target: Misshapen-like kinase 1 (Homo sapiens) (UniProt Q8N4C8); assay: Inhibition of MINK in human NCI-H929 cells by mass spectroscopic analysis; type: cell-based; settings: concentration not given here
[3] = biological target: Casein kinase I isoform gamma-3 (Homo sapiens) (UniProt Q9Y6M4); assay: Inhibition of CK1g3 in human NCI-H929 cells at 10 uM by mass spectroscopic analysis relative to control; type: cell-based
Chain of Casein kinase I isoform gamma-3 (Homo sapiens) (Q9Y6M4 whole entry, looked up, canonical isoform): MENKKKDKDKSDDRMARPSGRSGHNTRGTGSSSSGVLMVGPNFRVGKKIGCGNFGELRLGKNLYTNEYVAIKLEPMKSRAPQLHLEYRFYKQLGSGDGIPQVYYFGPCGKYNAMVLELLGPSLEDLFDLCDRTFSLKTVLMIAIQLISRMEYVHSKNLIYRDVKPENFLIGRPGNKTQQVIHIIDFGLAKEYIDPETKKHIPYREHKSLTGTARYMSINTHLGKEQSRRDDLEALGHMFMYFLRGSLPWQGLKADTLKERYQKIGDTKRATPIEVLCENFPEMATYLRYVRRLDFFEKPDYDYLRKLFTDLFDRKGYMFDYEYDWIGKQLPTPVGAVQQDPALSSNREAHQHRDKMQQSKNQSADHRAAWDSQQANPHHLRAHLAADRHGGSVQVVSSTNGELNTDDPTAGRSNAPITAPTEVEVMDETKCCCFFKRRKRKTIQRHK

[4] = biological target: Glycogen synthase kinase-3 alpha (Homo sapiens) (UniProt P49840); assay: Inhibition of GSK3A in human NCI-H929 cells at 10 uM by mass spectroscopic analysis relative to control; type: cell-based
Chain of Glycogen synthase kinase-3 alpha (Homo sapiens) (P49840 2-483 limits assumed): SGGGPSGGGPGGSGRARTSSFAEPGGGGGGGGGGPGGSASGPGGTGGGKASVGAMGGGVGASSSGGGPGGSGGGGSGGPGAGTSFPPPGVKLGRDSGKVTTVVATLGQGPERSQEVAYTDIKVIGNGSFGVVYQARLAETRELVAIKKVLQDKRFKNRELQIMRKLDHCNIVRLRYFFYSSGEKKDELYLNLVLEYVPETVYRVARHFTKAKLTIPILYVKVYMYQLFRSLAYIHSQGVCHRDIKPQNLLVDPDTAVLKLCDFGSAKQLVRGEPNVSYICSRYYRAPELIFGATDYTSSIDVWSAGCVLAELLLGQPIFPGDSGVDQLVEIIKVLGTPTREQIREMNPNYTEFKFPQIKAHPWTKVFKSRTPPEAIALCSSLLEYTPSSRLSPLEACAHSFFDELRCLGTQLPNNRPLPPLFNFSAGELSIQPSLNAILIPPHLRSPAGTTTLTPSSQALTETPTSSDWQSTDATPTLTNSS

[5] = biological target: Serine/threonine-protein kinase STK11 (Homo sapiens) (UniProt Q15831); assay: Inhibition of LKB1 in human NCI-H929 cells at 10 uM by mass spectroscopic analysis relative to control; type: cell-based
Chain of Serine/threonine-protein kinase STK11 (Homo sapiens) (Q15831 whole entry): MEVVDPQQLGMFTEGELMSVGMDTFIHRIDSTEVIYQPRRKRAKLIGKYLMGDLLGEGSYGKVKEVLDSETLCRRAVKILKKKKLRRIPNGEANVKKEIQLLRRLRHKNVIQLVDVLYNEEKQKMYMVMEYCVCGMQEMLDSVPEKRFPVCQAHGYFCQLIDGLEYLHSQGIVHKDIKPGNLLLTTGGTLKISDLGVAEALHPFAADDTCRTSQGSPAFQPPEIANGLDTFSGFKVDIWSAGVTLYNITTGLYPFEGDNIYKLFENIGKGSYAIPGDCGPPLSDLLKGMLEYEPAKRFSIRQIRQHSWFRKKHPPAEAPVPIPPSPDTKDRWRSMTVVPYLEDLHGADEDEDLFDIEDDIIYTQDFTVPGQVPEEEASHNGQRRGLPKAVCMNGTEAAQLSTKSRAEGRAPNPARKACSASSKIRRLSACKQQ

[6] = biological target: Dual specificity mitogen-activated protein kinase kinase 4 (Homo sapiens) (UniProt P45985); assay: Inhibition of MAP2K4 in human NCI-H929 cells at 10 uM by mass spectroscopic analysis relative to control; type: cell-based
Chain of Dual specificity mitogen-activated protein kinase kinase 4 (Homo sapiens) (P45985 whole entry): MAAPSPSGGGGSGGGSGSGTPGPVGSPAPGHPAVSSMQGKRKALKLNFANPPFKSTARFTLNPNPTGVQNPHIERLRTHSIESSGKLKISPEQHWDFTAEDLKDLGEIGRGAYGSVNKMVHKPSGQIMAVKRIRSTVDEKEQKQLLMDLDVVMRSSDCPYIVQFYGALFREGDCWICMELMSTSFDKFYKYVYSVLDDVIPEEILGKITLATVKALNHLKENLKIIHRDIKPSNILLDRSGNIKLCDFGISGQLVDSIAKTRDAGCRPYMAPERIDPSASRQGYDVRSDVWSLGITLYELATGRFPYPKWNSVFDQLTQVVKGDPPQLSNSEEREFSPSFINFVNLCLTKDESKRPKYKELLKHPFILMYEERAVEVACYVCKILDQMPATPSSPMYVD

[7] = biological target: Dual specificity mitogen-activated protein kinase kinase 7 (Homo sapiens) (UniProt O14733); assay: Inhibition of MAP2K7 in human NCI-H929 cells at 10 uM by mass spectroscopic analysis relative to control; type: cell-based
Chain of Dual specificity mitogen-activated protein kinase kinase 7 (Homo sapiens) (O14733 whole entry, the tested form may be a part): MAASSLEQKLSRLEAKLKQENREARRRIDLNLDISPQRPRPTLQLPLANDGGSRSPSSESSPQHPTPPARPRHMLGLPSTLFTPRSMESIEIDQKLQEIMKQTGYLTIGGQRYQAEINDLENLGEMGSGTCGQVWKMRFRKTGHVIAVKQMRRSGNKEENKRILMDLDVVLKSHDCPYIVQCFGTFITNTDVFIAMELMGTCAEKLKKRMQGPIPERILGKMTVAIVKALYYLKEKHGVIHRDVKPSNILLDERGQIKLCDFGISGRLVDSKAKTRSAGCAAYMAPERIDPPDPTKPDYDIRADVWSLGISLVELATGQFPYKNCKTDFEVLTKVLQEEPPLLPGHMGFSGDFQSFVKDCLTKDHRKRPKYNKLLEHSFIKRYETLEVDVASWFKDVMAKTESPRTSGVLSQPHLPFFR

[8] = biological target: Ribosomal protein S6 kinase alpha-4 (Homo sapiens) (UniProt O75676); assay: Inhibition of MSK2 domain 1 in human NCI-H929 cells at 10 uM by mass spectroscopic analysis relative to control; type: cell-based
Chain of Ribosomal protein S6 kinase alpha-4 (Homo sapiens) (O75676 whole entry, looked up, the tested form may be a part): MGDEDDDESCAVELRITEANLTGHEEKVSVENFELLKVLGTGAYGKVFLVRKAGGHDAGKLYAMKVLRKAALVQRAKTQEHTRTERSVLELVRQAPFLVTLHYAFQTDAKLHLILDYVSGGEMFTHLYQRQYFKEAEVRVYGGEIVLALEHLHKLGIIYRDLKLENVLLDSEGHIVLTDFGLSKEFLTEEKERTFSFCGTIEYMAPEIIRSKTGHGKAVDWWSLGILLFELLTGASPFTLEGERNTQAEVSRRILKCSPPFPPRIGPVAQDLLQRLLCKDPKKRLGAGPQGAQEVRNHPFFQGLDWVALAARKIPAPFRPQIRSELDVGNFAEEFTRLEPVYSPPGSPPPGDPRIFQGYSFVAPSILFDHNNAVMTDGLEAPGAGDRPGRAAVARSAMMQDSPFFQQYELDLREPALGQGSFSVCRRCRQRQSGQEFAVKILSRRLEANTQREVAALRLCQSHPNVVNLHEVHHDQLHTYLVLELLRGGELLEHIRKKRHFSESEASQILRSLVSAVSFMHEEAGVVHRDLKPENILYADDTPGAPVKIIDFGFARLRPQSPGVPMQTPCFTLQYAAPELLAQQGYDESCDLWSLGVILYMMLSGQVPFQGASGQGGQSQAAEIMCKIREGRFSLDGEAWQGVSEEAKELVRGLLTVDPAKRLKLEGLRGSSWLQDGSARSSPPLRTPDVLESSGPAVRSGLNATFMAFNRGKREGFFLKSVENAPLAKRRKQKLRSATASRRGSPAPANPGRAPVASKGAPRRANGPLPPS

[9] = biological target: Phosphatidylinositol 5-phosphate 4-kinase type-2 gamma (Homo sapiens) (UniProt Q8TBX8); assay: Inhibition of PIP4K2C in human NCI-H929 cells at 10 uM by mass spectroscopic analysis relative to control; type: cell-based
Chain of Phosphatidylinositol 5-phosphate 4-kinase type-2 gamma (Homo sapiens) (Q8TBX8 whole entry): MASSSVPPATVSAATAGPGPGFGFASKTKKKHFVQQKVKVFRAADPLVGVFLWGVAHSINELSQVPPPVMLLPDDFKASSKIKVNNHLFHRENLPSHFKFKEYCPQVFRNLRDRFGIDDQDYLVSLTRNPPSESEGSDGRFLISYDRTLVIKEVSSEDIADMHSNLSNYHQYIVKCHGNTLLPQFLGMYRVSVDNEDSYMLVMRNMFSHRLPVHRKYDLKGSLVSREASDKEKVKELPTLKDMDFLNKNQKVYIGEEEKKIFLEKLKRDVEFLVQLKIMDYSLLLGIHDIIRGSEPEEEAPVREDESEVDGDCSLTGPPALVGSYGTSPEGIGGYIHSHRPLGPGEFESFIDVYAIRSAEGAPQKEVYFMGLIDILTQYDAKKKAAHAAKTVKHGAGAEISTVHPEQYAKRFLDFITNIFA

[10] = biological target: Protein kinase C zeta type (Homo sapiens) (UniProt Q05513); assay: Inhibition of PKCz in human NCI-H929 cells at 10 uM by mass spectroscopic analysis relative to control; type: cell-based
Chain of Protein kinase C zeta type (Homo sapiens) (Q05513 whole entry, the tested form may be a part): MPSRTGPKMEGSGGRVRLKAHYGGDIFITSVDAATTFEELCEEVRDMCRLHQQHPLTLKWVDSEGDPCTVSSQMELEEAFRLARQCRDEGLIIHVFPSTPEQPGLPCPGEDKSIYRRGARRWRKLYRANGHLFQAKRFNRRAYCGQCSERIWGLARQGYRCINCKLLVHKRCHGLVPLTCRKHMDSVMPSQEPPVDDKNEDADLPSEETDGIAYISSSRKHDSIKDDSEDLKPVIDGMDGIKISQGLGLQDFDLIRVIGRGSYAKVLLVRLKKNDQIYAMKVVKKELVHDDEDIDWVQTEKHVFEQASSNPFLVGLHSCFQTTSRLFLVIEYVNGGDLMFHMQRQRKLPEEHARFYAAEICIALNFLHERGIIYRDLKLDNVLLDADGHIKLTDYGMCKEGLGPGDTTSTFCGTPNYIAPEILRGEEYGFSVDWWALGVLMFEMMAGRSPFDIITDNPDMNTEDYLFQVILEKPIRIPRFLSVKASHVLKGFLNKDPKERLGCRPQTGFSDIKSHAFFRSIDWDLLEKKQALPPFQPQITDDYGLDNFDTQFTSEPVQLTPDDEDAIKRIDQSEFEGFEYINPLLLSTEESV

[11] = biological target: Ribosomal protein S6 kinase alpha-3 (Homo sapiens) (UniProt P51812); assay: Inhibition of RSK2 domain 1 in human NCI-H929 cells at 10 uM by mass spectroscopic analysis relative to control; type: cell-based
Chain of Ribosomal protein S6 kinase alpha-3 (Homo sapiens) (P51812 whole entry, the tested form may be a part): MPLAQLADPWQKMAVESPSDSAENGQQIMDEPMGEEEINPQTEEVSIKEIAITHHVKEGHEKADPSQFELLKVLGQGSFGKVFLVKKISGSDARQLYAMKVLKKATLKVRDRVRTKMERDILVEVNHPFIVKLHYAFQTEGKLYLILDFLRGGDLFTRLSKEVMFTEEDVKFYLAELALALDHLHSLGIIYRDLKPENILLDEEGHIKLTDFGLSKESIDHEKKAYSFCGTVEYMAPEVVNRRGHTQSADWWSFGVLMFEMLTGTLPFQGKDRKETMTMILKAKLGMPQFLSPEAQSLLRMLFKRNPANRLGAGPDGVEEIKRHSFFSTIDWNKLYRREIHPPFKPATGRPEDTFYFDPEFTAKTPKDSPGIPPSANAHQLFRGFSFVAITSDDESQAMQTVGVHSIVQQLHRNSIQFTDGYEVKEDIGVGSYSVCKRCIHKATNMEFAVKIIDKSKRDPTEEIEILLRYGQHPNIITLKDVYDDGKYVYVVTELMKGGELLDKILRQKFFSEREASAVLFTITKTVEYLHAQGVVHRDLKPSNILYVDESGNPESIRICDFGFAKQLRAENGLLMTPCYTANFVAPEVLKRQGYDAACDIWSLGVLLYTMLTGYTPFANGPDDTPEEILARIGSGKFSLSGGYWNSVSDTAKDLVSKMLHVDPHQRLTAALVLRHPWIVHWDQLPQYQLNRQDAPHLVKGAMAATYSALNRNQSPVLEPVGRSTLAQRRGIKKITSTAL

Compound: Nc1ncc(-c2cccc([N+](=O)[O-])c2F)cc1-c1ccc2c(c1)CCNC2=O
Activity [1]: Active

inhibition [2]: 0%
inhibition [3]: 0%
inhibition [4]: 75%
inhibition [5]: > 90%
inhibition [6]: 0%
inhibition [7]: 75%
inhibition [8]: > 90%
inhibition [9]: 75%
inhibition [10]: 50%
Compound: COc1cc(NS(=O)(=O)C2CC2)ccc1-c1cnc(N)c(-c2ccc3c(c2)CCNC3=O)c1

inhibition [11]: 50%
Compound: Nc1ncc(-c2ccc(NS(=O)(=O)C3CC3)cc2OC2CCCCC2)cc1-c1ccc2c(c1)CCNC2=O
